A short description of the assay: cell viability reduction in serum-free and serum medium – absorbance readout, serum-free and serum-supplemented medium, cytotoxicity control for LYPLA1/LYPLA2 inhibitor project, late-stage follow-up (AID 743127). Particulars: serum-free or serum medium.

The source made the active and inactive calls. The rule behind the calls is not given here.

As usually defined, the CC50 is the concentration at which the toxic effect on the cells reaches its halfway point. In the case of `O=C(ON1C(=O)C2CN(C(=O)N3CCCCC3)CCN2C1=O)N1CCC(CCc2ccc(Cl)cc2)CC1` (centres undefined), the CC50 (in serum-free medium) is > 10 µM (inactive) and the CC50 (in serum-supplemented medium) is > 10 µM (inactive).

Regarding `O=C(ON1C(=O)C2CN(C(=O)N3CCOCC3)CCN2C1=O)N1CCC(CCc2ccc(Cl)cc2)CC1` (centres undefined), the CC50 reads like this: (in serum-free medium) > 100 µM (inactive); (in serum-supplemented medium) 100 µM (inactive).

The record behind these values is PubChem BioAssay AID743127 (The Scripps Research Institute Molecular Screening Center, 2013).
